Measurements from patent US20100261711A1, “SELECTIVE ANTICONVULSANT AGENTS AND THEIR USES” (WiSys Technology Foundation, priority 2009, published 2010).
Marks after values point to notes of the source that are not given here.

Assays:
[1] = biological target: T1, GABAA/α1 (α1β3γ2 GABAA receptors) (Homo sapiens, UniProt P14867+P18507); experiment: Competitive binding assay, [3H]flunitrazepam; details: Binding Affinity at GABAA/α1, αxβ3γ2, [3H]flunitrazepam competition
T1 construct: expressed in transfected cells
Outline: (§1)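 Bound ligand was collected on 0.3% polyethyleneimine-pretreated GF/C filters with three ice-cold washes and quantified by liquid scintillation counting; membrane protein was determined against a BSA standard.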

[2] = biological target: T2, GABAA/α2 (α2β3γ2 GABAA receptors) (Homo sapiens, UniProt P18507+P47869); experiment: Competitive binding assay, [3H]flunitrazepam; details: Binding Affinity at GABAA/α2, αxβ3γ2, [3H]flunitrazepam competition
T2 construct: expressed in transfected cells
Outline: as §1

[3] = biological target: T3, GABAA/α5 (α5β3γ2 GABAA receptors) (Homo sapiens, UniProt P18507+P31644); experiment: Competitive binding assay, [3H]flunitrazepam; details: Binding Affinity at GABAA/α5, αxβ3γ2, [3H]flunitrazepam competition
T3 construct: expressed in transfected cells
Outline: as §1

α1β3γ2 GABAA receptors = biological target: T4, α1β3γ2 GABAA receptors (Homo sapiens, UniProt P14867+P18507); experiment: Voltage clamp recordings from Xenopus oocytes; type: cell-based
T4 construct: expressed in transfected cells; host or cells: Xenopus laevis oocytes injected with cRNA
Procedure: The GABAA subunit selectivity of several compounds prepared as described above were determined using voltage clamp recordings from Xenopus oocytes that expressed that αxβ3γ2 GABAA receptor.
In Vitro Expression of GABAA Receptor Subunits The methods used for isolating, culturing, injecting and defolliculating of the oocytes were identical with those described by E. Sigel. […] European journal of pharmacology 1995, 289, (1), 87-95; Sigel, E.;& Baur, R., Allosteric modulation by benzodiazepine receptor ligands of the GABAA receptor channel expressed in Xenopus oocytes. J. Neurosci. 1988, 8, (1), 289-95; Sigel, E.; & Minier, F., The Xenopus oocyte: System for the study of functional expression and modulation of proteins. Molecular Nutrition & Food Research 2005, 49, (3), 228-234. Mature female Xenopus laevis (Nasco, Wis.) were anaesthetized in a bath of ice-cold 0.17% Tricain (Ethyl-m-aminobenzoate, Sigma, Mo.) before decapitation and removal of the frog ovary. Stage 5 to 6 oocytes with the follicle cell layer around them were singled out of the ovary using a platinum wire loop. […]
Voltage Clamp Recordings From Xenopus Oocytes. […] Data were digitized, recorded and measured using a Digidata 1322A data acquisition system (Axon Instruments, Union City, Calif.). […]

[4] = Toxicity (TOX), rotorod procedure, mice; type: in vivo; details: mouse, in vivo; Mice IP, rotorod; read-out: TD50 TOX
kindled motor seizure = experiment: Hippocampus kindling screen; type: in vivo; details: Rats IP
Excerpt: The hippocampus kindling screen is a useful adjunct to the traditional MES and scMet tests for identification of a substance potential utility for treating complex partial seizures. […] No toxic effects were observed as indicated by the lack of motor impairment on the rats tested.

SMILES | Ki [1] [nM] | Ki [2] [nM] | Ki [3] [nM] | efficacy at α1 (percent of control current) (α1β3γ2 GABAA receptors) [%] | TD50 [4] [mg/kg] | Tox, animals toxic/tested (kindled motor seizure; 30 mg/kg after 1.0 h) | Afterdischarge Duration, Drug (Low-High) (kindled motor seizure; 30 mg/kg after 1.0 h, pre-drug 30-41) | Tox, animals toxic/tested (kindled motor seizure; 50 mg/kg after 1.0 h) | Afterdischarge Duration, Drug (Low-High) (kindled motor seizure; 50 mg/kg after 1.0 h, pre-drug 47-61)
C#Cc1ccc2c(c1)C(c1ccccc1F)=NCc1c(C(=O)OCC)ncn1-2 [JY-XHe-053 (15), Ethyl-8-acetyleno-6-(2′-fluorophenyl)-4H-benzo[f]imidazo[1,5-a][1,4]diazepine-3-carboxylate] | 22 | 12.3 | 0.671 | 289 | > 400 | 0/2^b | 38- s | – | –
C#Cc1ccc2c(c1)C(c1ccccc1)=N[C@H](C)c1nnc(C)n1-2 [SH-TR-CH3 (146), (4R)-8-Ethynyl-1,4-dimethyl-6-phenyl-4H-benzo[f][1,2,4]triazolo[4,3-a][1,4]diazepine] | 7370 | 1530 | 1950 | – | – | – | – | – | –
C#Cc1ccc2c(c1)C(c1ccccn1)=NCc1c(C(=O)OCC)ncn1-2 [Hz166 (106), 8-Acetylenyl-6-pyridin-2-yl-4H-benzo[f]imidazo[1,5-a][1,4]diazepine-3-carboxylic acid ethyl ester] | – | – | – | 255 | > 500 | – | – | 0/8^a | 59- s
